Experimental data as given in PubChem BioAssay (NCI).
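Step 1: Grow cells in 96-well plates. Step 2: Expose to compound for 48 hours at 5 concentrations. Step 3: Interpolate endpoints linearly; if unreached, use highest concentration. TGI denotes the concentration required for complete inhibition of growth.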

Assays:
Assay in all cases: NCI tumour cell line growth inhibition, 48 h
HT29 colon = system: HT29 colon
DLD-1 colon = system: DLD-1 colon
LOX IMVI melanoma = system: LOX IMVI melanoma
TK-10 renal = system: TK-10 renal
UO-31 renal = system: UO-31 renal
ACHN renal = system: ACHN renal
RPMI-8226 leukemia = system: RPMI-8226 leukemia
OVCAR-8 ovarian = system: OVCAR-8 ovarian
SNB-78 CNS = system: SNB-78 CNS
A498 renal = system: A498 renal
KM12 colon = system: KM12 colon
LXFL 529 NSCLC = system: LXFL 529 NSCLC
HCT-15 colon = system: HCT-15 colon
NCI-H23 lung = system: NCI-H23 lung
M19-MEL melanoma = system: M19-MEL melanoma
HOP-92 NSCLC = system: HOP-92 NSCLC
SK-MEL-5 melanoma = system: SK-MEL-5 melanoma
OVCAR-4 ovarian = system: OVCAR-4 ovarian
SF-295 CNS = system: SF-295 CNS
SF-539 CNS = system: SF-539 CNS
DMS 114 small cell lung = system: DMS 114 small cell lung
IGROV1 ovarian = system: IGROV1 ovarian
MALME-3M melanoma = system: MALME-3M melanoma
DMS 273 small cell lung = system: DMS 273 small cell lung
NCI-H522 lung = system: NCI-H522 lung
EKVX NSCLC = system: EKVX NSCLC
UACC-62 melanoma = system: UACC-62 melanoma
SN12C renal = system: SN12C renal
SF-268 CNS = system: SF-268 CNS
RXF 393 renal = system: RXF 393 renal
NCI-H226 lung = system: NCI-H226 lung
XF 498 CNS = system: XF 498 CNS
UACC-257 melanoma = system: UACC-257 melanoma
U251 CNS = system: U251 CNS
SK-MEL-28 melanoma = system: SK-MEL-28 melanoma
CAKI-1 renal = system: CAKI-1 renal
M14 melanoma = system: M14 melanoma
786-0 renal = system: 786-0 renal
HOP-62 NSCLC = system: HOP-62 NSCLC
MOLT-4 leukemia = system: MOLT-4 leukemia
K-562 leukemia = system: K-562 leukemia
SNB-19 CNS = system: SNB-19 CNS
SK-OV-3 ovarian = system: SK-OV-3 ovarian
RXF-631 renal = system: RXF-631 renal
SW-620 colon = system: SW-620 colon
HCC-2998 colon = system: HCC-2998 colon
OVCAR-3 ovarian = system: OVCAR-3 ovarian
A549 NSCLC = system: A549 NSCLC
NCI-H460 lung = system: NCI-H460 lung
COLO 205 colon = system: COLO 205 colon
HOP-18 NSCLC = system: HOP-18 NSCLC
SR leukemia = system: SR leukemia
KM20L2 colon = system: KM20L2 colon
SK-MEL-2 melanoma = system: SK-MEL-2 melanoma
SNB-75 CNS = system: SNB-75 CNS
CCRF-CEM leukemia = system: CCRF-CEM leukemia
HCT-116 colon = system: HCT-116 colon
HL-60(TB) leukemia = system: HL-60(TB) leukemia
OVCAR-5 ovarian = system: OVCAR-5 ovarian

Measured: TGI

CC(=O)OC1COC(N2C(=O)C(=O)c3cc(Br)ccc32)C(OC(C)=O)C1OC(C)=O (stereo not drawn)
> 100 µM: HT29 colon | DLD-1 colon | LOX IMVI melanoma | TK-10 renal | UO-31 renal | ACHN renal | RPMI-8226 leukemia | OVCAR-8 ovarian | SNB-78 CNS | A498 renal | KM12 colon | LXFL 529 NSCLC | HCT-15 colon | NCI-H23 lung | M19-MEL melanoma | HOP-92 NSCLC | SK-MEL-5 melanoma | OVCAR-4 ovarian | SF-295 CNS | SF-539 CNS | DMS 114 small cell lung | IGROV1 ovarian | MALME-3M melanoma | DMS 273 small cell lung | NCI-H522 lung | EKVX NSCLC | UACC-62 melanoma | SN12C renal | SF-268 CNS | RXF 393 renal | NCI-H226 lung | XF 498 CNS | UACC-257 melanoma | U251 CNS | SK-MEL-28 melanoma | CAKI-1 renal | M14 melanoma | 786-0 renal | HOP-62 NSCLC | MOLT-4 leukemia | K-562 leukemia | SNB-19 CNS | SK-OV-3 ovarian | RXF-631 renal | SW-620 colon | HCC-2998 colon | OVCAR-3 ovarian | A549 NSCLC | NCI-H460 lung | COLO 205 colon | HOP-18 NSCLC | SR leukemia | KM20L2 colon | SK-MEL-2 melanoma | SNB-75 CNS | CCRF-CEM leukemia

C=C[C@]1(C)CCC2=C(CCC3C2(C)CCC[C@@]3(C)COC(C)=O)C1 (stereo partly drawn)
33.9 µM: HT29 colon
30.9 µM: HCT-116 colon
31.8 µM: 786-0 renal | HCC-2998 colon
36.4 µM: SNB-78 CNS | HL-60(TB) leukemia
53 µM: UACC-257 melanoma
34.7 µM: DLD-1 colon | KM12 colon
62.4 µM: MALME-3M melanoma
35.8 µM: SR leukemia
37.4 µM: DMS 114 small cell lung
38.1 µM: IGROV1 ovarian | RXF-631 renal
35 µM: HOP-92 NSCLC
34.4 µM: XF 498 CNS
54.3 µM: A498 renal
28.7 µM: NCI-H522 lung
30 µM: COLO 205 colon
31.7 µM: U251 CNS
32.2 µM: NCI-H460 lung
32.8 µM: OVCAR-5 ovarian
30.3 µM: MOLT-4 leukemia
30.8 µM: HCT-15 colon
32.1 µM: OVCAR-3 ovarian
35.4 µM: CCRF-CEM leukemia
32.5 µM: LXFL 529 NSCLC | SF-295 CNS
45.8 µM: UACC-62 melanoma
70.1 µM: HOP-18 NSCLC
37.9 µM: SF-539 CNS
31 µM: SK-MEL-5 melanoma
60.4 µM: SK-MEL-28 melanoma
37.6 µM: CAKI-1 renal
40.3 µM: M14 melanoma
40.2 µM: HOP-62 NSCLC
37.8 µM: RXF 393 renal
> 100 µM: OVCAR-4 ovarian
34.6 µM: OVCAR-8 ovarian | NCI-H226 lung
36.8 µM: EKVX NSCLC
33.5 µM: K-562 leukemia | KM20L2 colon
50.8 µM: M19-MEL melanoma
38.7 µM: ACHN renal
35.5 µM: SW-620 colon
31.9 µM: SNB-19 CNS
35.6 µM: RPMI-8226 leukemia
52.5 µM: A549 NSCLC
33.8 µM: LOX IMVI melanoma
36.7 µM: SNB-75 CNS
59 µM: TK-10 renal
43.3 µM: NCI-H23 lung
40 µM: SF-268 CNS
33 µM: SK-OV-3 ovarian
31.4 µM: SN12C renal
33.4 µM: UO-31 renal
29 µM: SK-MEL-2 melanoma

C=C(C(=C)P(=S)(c1ccccc1)c1ccccc1)P(=S)(c1ccccc1)c1ccccc1
> 100 µM: HT29 colon | TK-10 renal | ACHN renal | RPMI-8226 leukemia | OVCAR-8 ovarian | SNB-78 CNS | A498 renal | KM12 colon | LXFL 529 NSCLC | HCT-15 colon | NCI-H23 lung | M19-MEL melanoma | HOP-92 NSCLC | SK-MEL-5 melanoma | OVCAR-4 ovarian | SF-295 CNS | SF-539 CNS | DMS 114 small cell lung | IGROV1 ovarian | MALME-3M melanoma | DMS 273 small cell lung | NCI-H522 lung | EKVX NSCLC | UACC-62 melanoma | SN12C renal | SF-268 CNS | RXF 393 renal | XF 498 CNS | HCT-116 colon | UACC-257 melanoma | U251 CNS | SK-MEL-28 melanoma | CAKI-1 renal | M14 melanoma | 786-0 renal | HOP-62 NSCLC | MOLT-4 leukemia | K-562 leukemia | SNB-19 CNS | SK-OV-3 ovarian | SW-620 colon | HCC-2998 colon | OVCAR-3 ovarian | A549 NSCLC | NCI-H460 lung | COLO 205 colon | HL-60(TB) leukemia | HOP-18 NSCLC | KM20L2 colon | SK-MEL-2 melanoma | OVCAR-5 ovarian | SNB-75 CNS | CCRF-CEM leukemia

NN1C(=O)C(CCO)S/C1=N/N=C1/SC(CCO)C(=O)N1N (stereo not drawn)
> 100 µM: HT29 colon | DLD-1 colon | LOX IMVI melanoma | UO-31 renal | ACHN renal | RPMI-8226 leukemia | OVCAR-8 ovarian | SNB-78 CNS | A498 renal | KM12 colon | LXFL 529 NSCLC | HCT-15 colon | NCI-H23 lung | M19-MEL melanoma | HOP-92 NSCLC | SK-MEL-5 melanoma | OVCAR-4 ovarian | SF-295 CNS | SF-539 CNS | DMS 114 small cell lung | IGROV1 ovarian | MALME-3M melanoma | NCI-H522 lung | EKVX NSCLC | UACC-62 melanoma | SN12C renal | SF-268 CNS | RXF 393 renal | NCI-H226 lung | XF 498 CNS | HCT-116 colon | UACC-257 melanoma | U251 CNS | SK-MEL-28 melanoma | CAKI-1 renal | M14 melanoma | 786-0 renal | HOP-62 NSCLC | MOLT-4 leukemia | K-562 leukemia | SNB-19 CNS | SK-OV-3 ovarian | SW-620 colon | HCC-2998 colon | OVCAR-3 ovarian | A549 NSCLC | NCI-H460 lung | COLO 205 colon | HL-60(TB) leukemia | HOP-18 NSCLC | SR leukemia | KM20L2 colon | SK-MEL-2 melanoma | OVCAR-5 ovarian | SNB-75 CNS | CCRF-CEM leukemia

O=C(Nc1cccc2c1[nH]c1c(-c3ccccc3)nccc12)c1ccccc1[N+](=O)[O-]
9.05 µM: HOP-92 NSCLC
63.2 µM: OVCAR-5 ovarian
78.1 µM: NCI-H460 lung
60.3 µM: A498 renal
> 100 µM: HT29 colon | LOX IMVI melanoma | TK-10 renal | ACHN renal | RPMI-8226 leukemia | OVCAR-8 ovarian | SNB-78 CNS | KM12 colon | LXFL 529 NSCLC | NCI-H23 lung | OVCAR-4 ovarian | IGROV1 ovarian | MALME-3M melanoma | DMS 273 small cell lung | EKVX NSCLC | SN12C renal | SF-268 CNS | HCT-116 colon | UACC-257 melanoma | U251 CNS | SK-MEL-28 melanoma | M14 melanoma | MOLT-4 leukemia | K-562 leukemia | SNB-19 CNS | RXF-631 renal | SW-620 colon | HCC-2998 colon | A549 NSCLC | COLO 205 colon | HL-60(TB) leukemia | HOP-18 NSCLC | SR leukemia | KM20L2 colon | SK-MEL-2 melanoma | SNB-75 CNS | CCRF-CEM leukemia
70.4 µM: CAKI-1 renal
88 µM: SF-295 CNS
9.7 µM: NCI-H226 lung
97 µM: SF-539 CNS
90.2 µM: RXF 393 renal
41.2 µM: HCT-15 colon

OCc1c[te]c(-c2ccccc2)c1
79.4 µM: UO-31 renal
85.1 µM: NCI-H226 lung
62.8 µM: NCI-H23 lung
30.2 µM: OVCAR-3 ovarian
33.3 µM: HCT-116 colon
> 100 µM: DLD-1 colon | TK-10 renal | ACHN renal | OVCAR-8 ovarian | SNB-78 CNS | A498 renal | KM12 colon | LXFL 529 NSCLC | HCT-15 colon | M19-MEL melanoma | SK-MEL-5 melanoma | OVCAR-4 ovarian | IGROV1 ovarian | MALME-3M melanoma | DMS 273 small cell lung | EKVX NSCLC | UACC-62 melanoma | RXF 393 renal | UACC-257 melanoma | U251 CNS | SK-MEL-28 melanoma | CAKI-1 renal | M14 melanoma | 786-0 renal | HOP-62 NSCLC | MOLT-4 leukemia | K-562 leukemia | SK-OV-3 ovarian | RXF-631 renal | SW-620 colon | HCC-2998 colon | A549 NSCLC | NCI-H460 lung | KM20L2 colon | OVCAR-5 ovarian | SNB-75 CNS | CCRF-CEM leukemia
78.3 µM: SF-539 CNS
45.1 µM: HL-60(TB) leukemia
78.7 µM: SN12C renal
85.5 µM: SK-MEL-2 melanoma
86.8 µM: RPMI-8226 leukemia
91.7 µM: DMS 114 small cell lung
